In ChEMBL document CHEMBL6153079, “Discovery of noncovalent diaminopyrimidine-based Inhibitors for glioblastoma via a dual FAK/DNA targeting strategy” (Eur J Med Chem, 2025):
Active and inactive are the calls of the source. No cut-off for these calls is given here.

Key:
U-251 = assay: Antiproliferative activity against human U-251 assessed as cell viability incubated for 48 hrs by MTT assay; type: functional, cell-based; conditions: U-251, 48 h
Focal adhesion kinase 1 [1] = biological target: T1, Focal adhesion kinase 1 (Homo sapiens, UniProt Q05397); assay: Inhibition of FAK (unknown origin) at 50 nM relative to control
Target sequence in this assay (Q05397 2-1052 limits assumed): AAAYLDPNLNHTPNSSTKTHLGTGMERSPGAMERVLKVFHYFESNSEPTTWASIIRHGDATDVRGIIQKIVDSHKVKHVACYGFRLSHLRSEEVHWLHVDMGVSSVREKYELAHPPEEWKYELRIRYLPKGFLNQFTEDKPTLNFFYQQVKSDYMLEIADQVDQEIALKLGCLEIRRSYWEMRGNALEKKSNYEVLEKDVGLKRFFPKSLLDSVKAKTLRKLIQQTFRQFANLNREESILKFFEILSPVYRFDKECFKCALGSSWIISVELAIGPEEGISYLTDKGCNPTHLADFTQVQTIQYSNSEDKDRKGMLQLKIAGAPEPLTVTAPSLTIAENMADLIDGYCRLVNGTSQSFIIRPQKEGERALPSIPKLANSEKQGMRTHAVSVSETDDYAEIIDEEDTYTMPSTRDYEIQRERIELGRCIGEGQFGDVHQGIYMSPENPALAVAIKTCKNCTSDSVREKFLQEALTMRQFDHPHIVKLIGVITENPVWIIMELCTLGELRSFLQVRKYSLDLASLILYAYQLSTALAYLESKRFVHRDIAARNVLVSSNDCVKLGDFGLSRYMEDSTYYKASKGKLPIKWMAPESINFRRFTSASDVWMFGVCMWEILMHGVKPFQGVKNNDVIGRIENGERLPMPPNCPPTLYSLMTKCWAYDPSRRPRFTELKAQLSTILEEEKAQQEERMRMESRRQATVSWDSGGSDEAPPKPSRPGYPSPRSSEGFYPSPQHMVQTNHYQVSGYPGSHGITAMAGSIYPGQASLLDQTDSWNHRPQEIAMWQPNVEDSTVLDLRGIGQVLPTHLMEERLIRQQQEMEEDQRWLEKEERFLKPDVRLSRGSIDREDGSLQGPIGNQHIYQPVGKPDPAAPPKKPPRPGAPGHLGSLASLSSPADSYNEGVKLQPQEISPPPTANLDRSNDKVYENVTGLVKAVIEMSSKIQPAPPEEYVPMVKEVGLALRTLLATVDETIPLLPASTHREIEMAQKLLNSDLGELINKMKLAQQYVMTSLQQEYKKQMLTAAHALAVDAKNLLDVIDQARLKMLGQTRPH

Focal adhesion kinase 1 [2] = biological target: T1, Focal adhesion kinase 1; assay: Inhibition of FAK (unknown origin) at 10 nM relative to control
Target sequence in this assay (Q05397 2-1052 limits assumed): as above

Focal adhesion kinase 1 [3] = biological target: T1, Focal adhesion kinase 1; assay: Inhibition of FAK (unknown origin) preincubated for 10 mins followed by ATP and substrate addition and measured after 50 mins by HTRF analysis
Target sequence in this assay (Q05397 whole entry): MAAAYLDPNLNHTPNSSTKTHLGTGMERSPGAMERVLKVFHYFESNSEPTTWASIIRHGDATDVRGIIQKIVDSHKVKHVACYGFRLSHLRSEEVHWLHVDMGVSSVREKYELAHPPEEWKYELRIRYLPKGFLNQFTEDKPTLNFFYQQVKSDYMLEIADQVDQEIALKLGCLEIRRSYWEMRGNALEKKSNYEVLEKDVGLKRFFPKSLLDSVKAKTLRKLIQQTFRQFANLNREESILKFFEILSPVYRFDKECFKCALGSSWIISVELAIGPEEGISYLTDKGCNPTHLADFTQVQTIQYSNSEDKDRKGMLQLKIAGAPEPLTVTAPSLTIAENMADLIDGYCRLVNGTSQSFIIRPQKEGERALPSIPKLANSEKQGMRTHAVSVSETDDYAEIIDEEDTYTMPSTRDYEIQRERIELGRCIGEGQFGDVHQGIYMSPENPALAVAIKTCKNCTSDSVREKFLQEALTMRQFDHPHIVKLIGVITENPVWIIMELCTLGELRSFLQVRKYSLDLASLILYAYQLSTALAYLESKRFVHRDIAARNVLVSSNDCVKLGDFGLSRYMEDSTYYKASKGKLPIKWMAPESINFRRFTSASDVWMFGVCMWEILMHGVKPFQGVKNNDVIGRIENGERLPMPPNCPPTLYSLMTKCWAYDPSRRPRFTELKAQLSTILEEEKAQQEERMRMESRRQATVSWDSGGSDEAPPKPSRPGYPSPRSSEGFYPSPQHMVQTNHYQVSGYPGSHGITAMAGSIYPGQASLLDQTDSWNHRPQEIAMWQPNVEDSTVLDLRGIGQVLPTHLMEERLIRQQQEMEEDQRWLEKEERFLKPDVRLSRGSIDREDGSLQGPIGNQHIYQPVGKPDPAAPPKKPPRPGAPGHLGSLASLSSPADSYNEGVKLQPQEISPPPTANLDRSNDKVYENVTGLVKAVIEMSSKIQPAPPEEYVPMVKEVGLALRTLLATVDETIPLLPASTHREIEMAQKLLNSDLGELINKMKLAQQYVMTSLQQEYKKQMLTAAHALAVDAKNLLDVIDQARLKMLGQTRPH

[4] = Cytotoxicity against human LO2 assessed as cell viability incubated for 48 hrs by MTT assay; type: toxicity, cell-based, L02; conditions: LO2 cells
U-87 MG [5] = assay: Induction of DNA damage in human U-87 MG cells assessed as comet tail moment at 0.1 to 2 uM incubated for 2.5 to 3 hrs by comet assay; type: functional, U-87MG ATCC; conditions: time 2.5-3 hrs
U-87 MG [6] = assay: Induction of DNA damage in human U-87 MG cells incubated for 2.5 to 3 hrs by comet assay; type: functional, cell-based; conditions: U-87MG ATCC, dose 0.1-2 µM, time 2.5-3 hrs
U-87 MG [7] = assay: Antiproliferative activity against human U-87 MG assessed as inhibition of cell growth at 0.025 to 0.1 uM; type: functional, U-87MG ATCC; conditions: dose 0.025-0.1 µM
U-87 MG [8] = assay: Inhibition of ERK1/2 phosphorylation in human U-87 MG cells at 0.05 uM incubated for 24 hrs by Western blot analysis; type: cell-based
Focal adhesion kinase 1 [9] = biological target: T1, Focal adhesion kinase 1; assay: Inhibition of FAK phosphorylation in human U-87 MG cells at 0.8 uM incubated for 24 hrs by Western blot analysis; type: cell-based
Target sequence in this assay (Q05397 2-1052 limits assumed): as the sequence (Q05397 2-1052 limits assumed) above

U-87 MG [10] = assay: Inhibition of AKT phosphorylation in human U-87 MG cells at 0.8 uM incubated for 24 hrs by Western blot analysis; type: cell-based
U-87 MG [11] = assay: Inhibition of ERK1/2 phosphorylation in human U-87 MG cells at 0.8 uM incubated for 24 hrs by Western blot analysis; type: cell-based
U-87 MG [12] = assay: Induction of apoptosis in human U-87 MG cells assessed as viable cells at 0.01 uM measured upto 24 hrs by Annexin V-FITC/PI staining based flow cytometry analysis (reference value: 98.4%); type: functional, U-87MG ATCC; conditions: read-out: Activity
U-87 MG [13] = assay: Induction of apoptosis in human U-87 MG cells assessed as late apoptotic cells at 0.01 uM measured upto 24 hrs by Annexin V-FITC/PI staining based flow cytometry analysis (reference value: 0.54%); type: functional, U-87MG ATCC
U-87 MG [14] = assay: Induction of apoptosis in human U-87 MG cells assessed as viable cells at 2 uM measured upto 24 hrs by Annexin V-FITC/PI staining based flow cytometry analysis (reference value: 98.4%); type: functional, U-87MG ATCC; conditions: read-out: Activity
U-87 MG [15] = assay: Induction of apoptosis in human U-87 MG cells assessed as early apoptotic cells at 2 uM measured upto 24 hrs by Annexin V-FITC/PI staining based flow cytometry analysis (reference value: 0.45%); type: functional, U-87MG ATCC
U-87 MG [16] = assay: Induction of apoptosis in human U-87 MG cells assessed as necrotic cells at 2 uM measured upto 24 hrs by Annexin V-FITC/PI staining based flow cytometry analysis (reference value: 0.62%); type: functional, U-87MG ATCC
U-87 MG [17] = assay: Induction of apoptosis in human U-87 MG cells assessed as viable cells at 0.02 uM measured upto 24 hrs by Annexin V-FITC/PI staining based flow cytometry analysis (reference value: 98.4%); type: functional, U-87MG ATCC; conditions: read-out: Activity
U-87 MG [18] = assay: Induction of apoptosis in human U-87 MG cells assessed as necrotic cells at 0.02 uM measured upto 24 hrs by Annexin V-FITC/PI staining based flow cytometry analysis (reference value: 0.62%); type: functional, U-87MG ATCC
U-87 MG [19] = assay: Induction of cell cycle arrest in human U-87 MG cells assessed as accumulation of cells at G0/G1 phase at 0.01 uM by propidium Iodide staining based flow cytometry analysis (reference value: 80.68%); type: functional, U-87MG ATCC
U-87 MG [20] = assay: Induction of cell cycle arrest in human U-87 MG cells assessed as accumulation of cells at G2M phase at 0.01 uM by propidium Iodide staining based flow cytometry analysis (reference value: 9.73%); type: functional, U-87MG ATCC
U-87 MG [21] = assay: Induction of cell cycle arrest in human U-87 MG cells assessed as accumulation of cells at […] at 0.01 uM by propidium Iodide staining based flow cytometry analysis (reference value: 1.67%); type: functional, U-87MG ATCC
U-87 MG [22] = assay: Induction of cell cycle arrest in human U-87 MG cells assessed as accumulation of cells at G0/G1 phase at 2 uM by propidium Iodide staining based flow cytometry analysis (reference value: 80.68%); type: functional, U-87MG ATCC
U-87 MG [23] = assay: Induction of cell cycle arrest in human U-87 MG cells assessed as accumulation of cells at G0/G1 phase at 0.02 uM by propidium Iodide staining based flow cytometry analysis (reference value: 80.68%); type: functional, U-87MG ATCC
U-87 MG [24] = assay: Induction of cell cycle arrest in human U-87 MG cells assessed as accumulation of cells at G2M phase at 0.02 uM by propidium Iodide staining based flow cytometry analysis (reference value: 9.73%); type: functional, U-87MG ATCC
U-87 MG [25] = assay: Induction of cell cycle arrest in human U-87 MG cells assessed as accumulation of cells at G0/G1 phase at 0.2 uM by propidium Iodide staining based flow cytometry analysis (reference value: 80.68%); type: functional, U-87MG ATCC
U-87 MG [26] = assay: Induction of cell cycle arrest in human U-87 MG cells assessed as accumulation of cells at S phase at 0.2 uM by propidium Iodide staining based flow cytometry analysis (reference value: 9.59%); type: functional, U-87MG ATCC
U-87 MG [27] = assay: Antitumor activity against human U-87 MG cells xenografted in BALB/c mouse assessed as inhibition of tumor growth at 5 mg/kg, ip administered once daily for 15 days; type: functional, U-87MG ATCC; conditions: 360 h, time 15 day, read-out: TGI
U-87 MG [28] = assay: Antitumor activity against human U-87 MG cells xenografted in BALB/c mouse assessed as inhibition of tumor growth at 25 mg/kg, ip administered once daily for 15 days; type: functional, U-87MG ATCC; conditions: 360 h, time 15 day, read-out: TGI
[29] = Toxicity in BALB/c mouse implanted with human U-87 MG cells assessed as body weight loss at 5 to 25 mg/kg, ip administered once daily for 15 days by H and E staining based analysis; type: organism-based; conditions: in vivo, 360 h, dose 5-25 mg/kg, time 15 day
[30] = Toxicity in BALB/c mouse implanted with human U-87 MG cells assessed as mortality at 5 to 25 mg/kg, ip administered once daily for 15 days by H and E staining based analysis; type: organism-based; conditions: in vivo, 360 h, dose 5-25 mg/kg, time 15 day
[31] = Toxicity in BALB/c mouse implanted with human U-87 MG cells assessed as tolerability at 5 to 25 mg/kg, ip administered once daily for 15 days by H and E staining based analysis; type: organism-based; conditions: in vivo, 360 h, dose 5-25 mg/kg, time 15 day
[32] = Toxicity in BALB/c mouse implanted with human U-87 MG cells assessed as liver damage at 5 mg/kg, ip administered once daily for 15 days by H and E staining based analysis; type: organism-based; conditions: in vivo, 360 h, time 15 day
[33] = Toxicity in BALB/c mouse implanted with human U-87 MG cells assessed as hypertrophy in myocardium at 5 mg/kg, ip administered once daily for 15 days by H and E staining based analysis; type: organism-based; conditions: in vivo, 360 h, time 15 day
[34] = Toxicity in BALB/c mouse implanted with human U-87 MG cells assessed as tubular epithelial degeneration in renal cortex at 5 mg/kg, ip administered once daily for 15 days by H and E staining based analysis; type: organism-based; conditions: in vivo, 360 h, time 15 day

Compound: CNC(=O)c1ccccc1Nc1nc(Nc2ccc(N3CCN(CCOC(=O)CCCc4ccc(N(CCCl)CCCl)cc4)CC3)cc2)ncc1C(F)(F)F
- IC50 (U-251): 20 nM
- inhibition (Focal adhesion kinase 1 [1]): 100%
- inhibition (Focal adhesion kinase 1 [2]): 98.6%
- IC50 (Focal adhesion kinase 1 [3]): 0.815 nM
- IC50 at 48 h [4]: 586 nM
- Activity (U-87 MG [5]): 11.6
- Activity (U-87 MG [6]): Dose-dependent-effect; Ability To Induce Dna Damage Was Stronger Than That Of Tmx And Chlorambucil
- inhibition (INH) (U-87 MG [7]): 100%
- inhibition (U-87 MG [8]): Active
- inhibition (Focal adhesion kinase 1 [9]): 100%
- inhibition (U-87 MG [10]): 100%
- inhibition (U-87 MG [11]): 100%
- viability at 0.01 µM (U-87 MG [12]): 74.8%
- Activity (U-87 MG [13]): 4.61%
- viability at 2 µM (U-87 MG [14]): 44.2%
- Activity (U-87 MG [15]): 46.5%
- Activity (U-87 MG [16]): 2.16%
- viability at 0.02 µM (U-87 MG [17]): 63.8%
- Activity (U-87 MG [18]): 5.5%
- Activity (U-87 MG [19]): 69.64%
- Activity (U-87 MG [20]): 16.53%
- Activity (U-87 MG [21]): 1.77%
- Activity (U-87 MG [22]): 38.9%
- Activity (U-87 MG [23]): 62.68%
- Activity (U-87 MG [24]): 20.9%
- Activity (U-87 MG [25]): 44.98%
- Activity (U-87 MG [26]): 11.41%
- inhibition in vivo at 5 mg/kg (U-87 MG [27]): 63.7%
- inhibition in vivo at 25 mg/kg (U-87 MG [28]): 82.5%
- Activity [29]: Non-toxic
- Activity [30]: Non-toxic
- Activity [31]: Non-toxic
- Activity [32]: Non-toxic
- Activity [33]: Non-toxic
- Activity [34]: Non-toxic
